Laboratory results from patent publication US10221173B2, “Chemical compounds” (AstraZeneca AB, priority 2017, dated 2019).
In brackets after ≈: the same amount, converted by molar mass.

Key:
[1] = target: hERG potassium channel (Homo sapiens (Human), UniProt Q12809)
[2] = target: T1, Estrogen Receptor (ERα) in MCF-7 cells (Homo sapiens (Human), UniProt P03372); assay: Western blotting assay, ER down-regulation in MCF-7; assay type: cell-based; details: MCF-7, 100 nM compound, 48 h, vs 100 nM fulvestrant
T1 sequence (P03372 whole entry): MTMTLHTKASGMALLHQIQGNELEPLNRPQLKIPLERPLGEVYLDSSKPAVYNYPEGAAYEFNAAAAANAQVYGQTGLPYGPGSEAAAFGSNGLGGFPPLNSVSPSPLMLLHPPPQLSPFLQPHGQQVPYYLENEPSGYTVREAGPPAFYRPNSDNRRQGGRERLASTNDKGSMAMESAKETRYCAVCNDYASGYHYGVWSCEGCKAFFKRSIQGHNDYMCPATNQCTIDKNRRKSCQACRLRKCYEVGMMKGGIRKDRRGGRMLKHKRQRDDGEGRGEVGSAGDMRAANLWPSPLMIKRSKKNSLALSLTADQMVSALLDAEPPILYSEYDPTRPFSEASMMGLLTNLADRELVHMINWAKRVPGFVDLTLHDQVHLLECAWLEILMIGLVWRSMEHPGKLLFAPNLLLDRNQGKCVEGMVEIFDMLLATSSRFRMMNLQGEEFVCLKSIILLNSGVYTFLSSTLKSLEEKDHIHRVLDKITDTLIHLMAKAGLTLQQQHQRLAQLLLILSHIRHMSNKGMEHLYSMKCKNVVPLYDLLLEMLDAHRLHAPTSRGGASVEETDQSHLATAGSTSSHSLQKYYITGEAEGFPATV

[3] = target: estrogen receptor (ERα) in CAMA-1 cells (Homo sapiens (Human), UniProt P03372); assay: Western blotting assay, ER down-regulation in CAMA-1; assay type: cell-based; details: CAMA-1, 100 nM compound, 48 h, vs 100 nM fulvestrant
estrogen receptor (ERα) in CAMA-1 cells, sequence (P03372 whole entry, the tested form may be a part): as the sequence (P03372 whole entry) above

[4] = target: recombinant human Estrogen Receptor alpha ligand binding domain (ER alpha-LBD (GST)) (Homo sapiens (Human), UniProt P03372); assay: ERα binding assay (LanthaScreen TR-FRET competition)
recombinant human Estrogen Receptor alpha ligand binding domain (ER alpha-LBD (GST)), sequence (P03372 307-554): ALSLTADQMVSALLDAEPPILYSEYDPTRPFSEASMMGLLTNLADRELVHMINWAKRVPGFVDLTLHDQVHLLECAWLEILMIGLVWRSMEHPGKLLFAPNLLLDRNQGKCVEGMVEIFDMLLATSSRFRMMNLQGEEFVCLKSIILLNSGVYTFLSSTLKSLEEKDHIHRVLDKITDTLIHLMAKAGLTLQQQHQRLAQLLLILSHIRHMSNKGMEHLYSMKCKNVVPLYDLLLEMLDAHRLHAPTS

[5] = target: T1, Estrogen Receptor (ERα) in MCF-7 cells; assay: MCF-7 ER down-regulation assay (immuno-fluorescence); assay type: cell-based
[6] = Thermodynamic solubility (shake-flask); assay type: physicochemical; details: aqueous phosphate buffer, 25 °C, pH 7.4, aqueous buffer, thermodynamic from solid, phosphate buffer pH 7.4, 24 hours
Method: The thermodynamic solubility of a research compound is measured under standard conditions. It is a shake-flask approach that uses 10 mM DMSO solutions which are supplied from the Compound Managements liquid store and is a high throughput method. The dried compounds are equilibrated in an aqueous phosphate buffer (pH 7.4) for 24 hours at 25° C., the portion with the dissolved compound is then separated from the remains. The solutions are analyzed and quantified using UPLC/MS/MS, QC-samples are incorporated in each assay-run to ensure the quality of the assay.

[7] = Human plasma protein binding (equilibrium dialysis); assay type: in vitro ADME
Method: The automated equilibrium dialysis assay in human plasma uses the RED (Rapid Equilibrium Dialysis) Device and sample handling. The assay generally runs over two to three days including delivery of results. After dialysis for 18 hours, plasma and buffer samples are prepared for analysis by liquid chromatography and mass spectrometry. Samples are generally tested in singlicates and quantified by LC/MSMS by using a 7-point calibration curve in plasma. The compounds are pooled together in plasma pools up to 10 compounds. Three reference compounds are used in each run, Propranolol, Metoprolol and Warfarin. Warfarin is used as a control in each pool and Propranolol and Metoprolol are placed randomly in each run. An in-house Excel macro is used for preparation of files for the robot and the mass spectrometer and is also used for the calculations of fraction unbound (fu %) in plasma.

[8] = Log D (shake flask, 1-octanol/aqueous buffer); assay type: physicochemical; details: 1-octanol/aqueous buffer, pH 7.4, pH 7.4

hERG potassium channel, sequence (Q12809 whole entry): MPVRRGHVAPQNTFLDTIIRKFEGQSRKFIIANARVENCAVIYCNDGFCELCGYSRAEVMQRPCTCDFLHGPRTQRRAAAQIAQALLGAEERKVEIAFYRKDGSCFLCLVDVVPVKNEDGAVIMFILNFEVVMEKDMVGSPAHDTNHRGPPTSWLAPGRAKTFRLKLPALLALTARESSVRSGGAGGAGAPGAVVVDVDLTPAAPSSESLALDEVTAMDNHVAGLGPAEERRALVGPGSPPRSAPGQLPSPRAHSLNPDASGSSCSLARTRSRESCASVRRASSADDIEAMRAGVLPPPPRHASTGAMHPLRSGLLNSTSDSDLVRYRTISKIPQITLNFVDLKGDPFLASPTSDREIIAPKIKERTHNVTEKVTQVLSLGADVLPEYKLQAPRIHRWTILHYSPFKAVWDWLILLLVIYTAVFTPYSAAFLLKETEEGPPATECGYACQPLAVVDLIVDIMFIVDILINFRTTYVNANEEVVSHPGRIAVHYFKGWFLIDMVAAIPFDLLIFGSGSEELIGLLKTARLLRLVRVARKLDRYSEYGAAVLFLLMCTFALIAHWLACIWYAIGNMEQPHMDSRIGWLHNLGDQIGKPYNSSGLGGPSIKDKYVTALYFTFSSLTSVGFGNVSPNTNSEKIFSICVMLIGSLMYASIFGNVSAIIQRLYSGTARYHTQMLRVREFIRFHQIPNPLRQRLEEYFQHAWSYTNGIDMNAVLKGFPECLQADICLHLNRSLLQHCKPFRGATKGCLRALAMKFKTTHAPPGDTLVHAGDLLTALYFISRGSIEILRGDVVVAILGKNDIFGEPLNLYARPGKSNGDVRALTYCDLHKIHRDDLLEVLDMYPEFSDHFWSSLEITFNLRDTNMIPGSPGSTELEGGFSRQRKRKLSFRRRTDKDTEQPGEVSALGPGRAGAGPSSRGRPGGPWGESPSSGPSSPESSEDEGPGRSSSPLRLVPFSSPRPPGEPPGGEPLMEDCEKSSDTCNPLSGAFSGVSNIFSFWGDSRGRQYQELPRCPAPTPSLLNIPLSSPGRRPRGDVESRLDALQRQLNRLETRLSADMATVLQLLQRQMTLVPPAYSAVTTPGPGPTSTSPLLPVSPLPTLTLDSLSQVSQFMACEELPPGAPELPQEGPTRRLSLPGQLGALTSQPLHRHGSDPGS

COc1cnc(OCCNCCCF)cc1[C@@H]1c2[nH]c3ccccc3c2C[C@@H](C)N1CC(F)(F)F [Example 12, 3-fluoro-N-(2-((5-methoxy-4-((1R,3R)-3-methyl-2-(2,2,2-trifluoroethyl)-2,3,4,9-tetrahydro-1H-pyrido[3,4-b]indol-1-yl)pyridin-2-yl)oxy)ethyl)propan-1-amine]
IC50 [1]: 8200 nM | MCF7 Western % ER deg vs Fv [2]: 92% | CAMA1 Western % ER deg vs Fv [3]: 89% | IC50 [4]: 0.62 nM | IC50 [5]: 0.059 nM

C[C@@H]1Cc2c([nH]c3ccccc23)[C@@H](c2cc(OCCNCCCF)ccn2)N1CC(F)(F)F [Example 35, 3-fluoro-N-(2-((2-((1S,3R)-3-methyl-2-(2,2,2-trifluoroethyl)-2,3,4,9-tetrahydro-1H-pyrido[3,4-b]indol-1-yl)pyridin-4-yl)oxy)ethyl)propan-1-amine]
IC50 [1]: 5600 nM | MCF7 Western % ER deg vs Fv [2]: 94% | CAMA1 Western % ER deg vs Fv [3]: 92% | IC50 [4]: 1.9 nM | solubility at 24 h [6]: 222 µM (≈ 103 µg/mL) | Human plasma protein binding (% free) [7]: 5.4 % free | logD [8]: 3.1 | IC50 [5]: 1.1 nM

COc1ccc(NCCNCCCF)c(F)c1[C@@H]1c2[nH]c3ccccc3c2C[C@@H](C)N1CC(F)(F)F [Example 90, N1-(2-fluoro-4-methoxy-3-((1R,3R)-3-methyl-2-(2,2,2-trifluoroethyl)-2,3,4,9-tetrahydro-1H-pyrido[3,4-b]indol-1-yl)phenyl)-N2-(3-fluoropropyl)ethane-1,2-diamine]
IC50 [1]: 5000 nM | MCF7 Western % ER deg vs Fv [2]: 76% | CAMA1 Western % ER deg vs Fv [3]: 93% | IC50 [4]: 0.65 nM | solubility at 24 h [6]: 365 µM (≈ 186 µg/mL) | Human plasma protein binding (% free) [7]: 1.1 % free | logD [8]: 2.8 | IC50 [5]: 0.3 nM

C[C@@H]1Cc2c([nH]c3ccccc23)[C@@H](c2c(F)ccc(OCCNCCCF)c2F)N1CC(F)F [Example 51, N-(2-(3-((1R,3R)-2-(2,2-difluoroethyl)-3-methyl-2,3,4,9-tetrahydro-1H-pyrido[3,4-b]indol-1-yl)-2,4-difluorophenoxy)ethyl)-3-fluoropropan-1-amine]
IC50 [1]: 4100 nM | MCF7 Western % ER deg vs Fv [2]: 92% | CAMA1 Western % ER deg vs Fv [3]: 93% | IC50 [4]: 1.2 nM | solubility at 24 h [6]: 122 µM (≈ 58.7 µg/mL) | Human plasma protein binding (% free) [7]: 2.3 % free | logD [8]: 3.2 | IC50 [5]: 0.12 nM

C[C@@H]1Cc2c([nH]c3ccccc23)[C@@H](c2nccc(OCCNCCCF)c2F)N1CC(F)(F)F [Example 92, 3-fluoro-N-(2-((3-fluoro-2-((1S,3R)-3-methyl-2-(2,2,2-trifluoroethyl)-2,3,4,9-tetrahydro-1H-pyrido[3,4-b]indol-1-yl)pyridin-4-yl)oxy)ethyl)propan-1-amine]
IC50 [1]: 23000 nM | MCF7 Western % ER deg vs Fv [2]: 93% | CAMA1 Western % ER deg vs Fv [3]: 91% | IC50 [4]: 1.6 nM | solubility at 24 h [6]: 468 µM (≈ 226 µg/mL) | logD [8]: 2.7 | IC50 [5]: 0.4 nM

C[C@@H]1Cc2c([nH]c3ccccc23)[C@@H](c2cccc(OCCNCCCF)c2)N1CC1(F)COC1 [Example 1, 3-Fluoro-N-(2-(3-((1R,3R)-2-((3-fluorooxetan-3-yl)methyl)-3-methyl-2,3,4,9-tetrahydro-1H-pyrido[3,4-b]indol-1-yl)phenoxy)ethyl)propan-1-amine]
IC50 [1]: 4400 nM | MCF7 Western % ER deg vs Fv [2]: 79% | CAMA1 Western % ER deg vs Fv [3]: 66% | solubility at 24 h [6]: 303 µM (≈ 142 µg/mL)

C[C@@H]1Cc2c([nH]c3ccccc23)[C@@H](c2nccc(OCCNCCCF)c2F)N1CC(F)(F)CO [Example 97, 2,2-difluoro-3-((1S,3R)-1-(3-fluoro-4-(2-((3-fluoropropyl)amino)ethoxy)pyridin-2-yl)-3-methyl-1,3,4,9-tetrahydro-2H-pyrido[3,4-b]indol-2-yl)propan-1-ol]
IC50 [1]: 18000 nM | MCF7 Western % ER deg vs Fv [2]: 89% | CAMA1 Western % ER deg vs Fv [3]: 84% | IC50 [4]: 2.2 nM | solubility at 24 h [6]: > 1000 µM | Human plasma protein binding (% free) [7]: 6.8 % free | logD [8]: 1.8 | IC50 [5]: 0.66 nM

Cc1c(OCCNCCCF)ncc(F)c1[C@@H]1c2[nH]c3ccccc3c2C[C@@H](C)N1CC(F)(F)CO [Example 110, 2,2-difluoro-3-((1R,3R)-1-(5-fluoro-2-(2-((3-fluoropropyl)amino)ethoxy)-3-methylpyridin-4-yl)-3-methyl-1,3,4,9-tetrahydro-2H-pyrido[3,4-b]indol-2-yl)propan-1-ol]
IC50 [1]: 2800 nM | MCF7 Western % ER deg vs Fv [2]: 91% | CAMA1 Western % ER deg vs Fv [3]: 83% | IC50 [4]: 0.43 nM | solubility at 24 h [6]: 939 µM (≈ 478 µg/mL) | logD [8]: 3.1 | IC50 [5]: 0.045 nM

C[C@@H]1Cc2c([nH]c3ccccc23)[C@@H](c2c(F)ccc(OCCNCCCF)c2F)N1CC1(F)COC1 [Example 13, N-(2-(2,4-difluoro-3-((1R,3R)-2-((3-fluorooxetan-3-yl)methyl)-3-methyl-2,3,4,9-tetrahydro-1H-pyrido[3,4-b]indol-1-yl)phenoxy)ethyl)-3-fluoropropan-1-amine]
IC50 [1]: 2600 nM | MCF7 Western % ER deg vs Fv [2]: 83% | CAMA1 Western % ER deg vs Fv [3]: 92% | IC50 [4]: 1.6 nM | solubility at 24 h [6]: 493 µM (≈ 249 µg/mL) | Human plasma protein binding (% free) [7]: 3.5 % free | logD [8]: 2.6 | IC50 [5]: 0.22 nM

C[C@@H]1Cc2c([nH]c3ccccc23)[C@@H](c2cc(OCCNCCCF)ccc2Cl)N1CC(F)(F)CO [Example 44, 3-((1R,3R)-1-(2-chloro-5-(2-((3-fluoropropyl)amino)ethoxy)phenyl)-3-methyl-1,3,4,9-tetrahydro-2H-pyrido[3,4-b]indol-2-yl)-2,2-difluoropropan-1-ol]
IC50 [1]: 2900 nM | MCF7 Western % ER deg vs Fv [2]: 95% | CAMA1 Western % ER deg vs Fv [3]: 94% | IC50 [4]: 1 nM | solubility at 24 h [6]: 278 µM (≈ 142 µg/mL) | Human plasma protein binding (% free) [7]: 2.3 % free | logD [8]: 3.3 | IC50 [5]: 0.14 nM

C[C@@H]1Cc2c([nH]c3cccc(F)c23)[C@@H](c2c(F)ccc(OCCNCCCF)c2F)N1CC(F)(F)CO [Example 62, 3-((1R,3R)-1-(2,6-difluoro-3-(2-((3-fluoropropyl)amino)ethoxy)phenyl)-5-fluoro-3-methyl-1,3,4,9-tetrahydro-2H-pyrido[3,4-b]indol-2-yl)-2,2-difluoropropan-1-ol]
IC50 [1]: 5000 nM | MCF7 Western % ER deg vs Fv [2]: 95% | CAMA1 Western % ER deg vs Fv [3]: 96% | IC50 [4]: 0.71 nM | solubility at 24 h [6]: 302 µM (≈ 160 µg/mL) | Human plasma protein binding (% free) [7]: 1.2 % free | logD [8]: 3.3 | IC50 [5]: 0.076 nM

C[C@@H]1Cc2c([nH]c3ccc(F)cc23)[C@@H](c2c(F)ccc(OCCNCCCF)c2F)N1CC(F)(F)CO [Example 15, 3-((1R,3R)-1-(2,6-difluoro-3-(2-((3-fluoropropyl)amino)ethoxy)phenyl)-6-fluoro-3-methyl-1,3,4,9-tetrahydro-2H-pyrido[3,4-b]indol-2-yl)-2,2-difluoropropan-1-ol]
IC50 [1]: 4600 nM | MCF7 Western % ER deg vs Fv [2]: 94% | CAMA1 Western % ER deg vs Fv [3]: 91% | IC50 [4]: 0.55 nM | solubility at 24 h [6]: 571 µM (≈ 302 µg/mL) | Human plasma protein binding (% free) [7]: 3.2 % free | logD [8]: 2.9 | IC50 [5]: 0.079 nM

Cc1ccc2[nH]c3c(c2c1)C[C@@H](C)N(CC(F)(F)CO)[C@@H]3c1c(F)ccc(OCCNCCCF)c1F [Example 63, 3-((1R,3R)-1-(2,6-difluoro-3-(2-((3-fluoropropyl)amino)ethoxy)phenyl)-3,6-dimethyl-1,3,4,9-tetrahydro-2H-pyrido[3,4-b]indol-2-yl)-2,2-difluoropropan-1-ol]
IC50 [1]: 4700 nM | MCF7 Western % ER deg vs Fv [2]: 94% | CAMA1 Western % ER deg vs Fv [3]: 85% | IC50 [4]: 1.1 nM | solubility at 24 h [6]: 273 µM (≈ 143 µg/mL) | Human plasma protein binding (% free) [7]: 0.97 % free | logD [8]: 3.1 | IC50 [5]: 0.32 nM

Cc1c(OCCNCCCF)ccnc1[C@@H]1c2[nH]c3ccccc3c2C[C@@H](C)N1CC(F)(F)CO [Example 96, 2,2-difluoro-3-((1S,3R)-1-(4-(2-((3-fluoropropyl)amino)ethoxy)-3-methylpyridin-2-yl)-3-methyl-1,3,4,9-tetrahydro-2H-pyrido[3,4-b]indol-2-yl)propan-1-ol]
IC50 [1]: 10000 nM | MCF7 Western % ER deg vs Fv [2]: 94% | CAMA1 Western % ER deg vs Fv [3]: 100% | IC50 [4]: 1.4 nM | solubility at 24 h [6]: 960 µM (≈ 471 µg/mL) | Human plasma protein binding (% free) [7]: 7.1 % free | logD [8]: 2.4 | IC50 [5]: 0.2 nM

COc1ccc(OCCNCCCF)cc1[C@@H]1c2[nH]c3ccc(F)cc3c2C[C@@H](C)N1CC(F)(F)CO [Example 46, 2,2-difluoro-3-((1R,3R)-6-fluoro-1-(5-(2-((3-fluoropropyl)amino)ethoxy)-2-methoxyphenyl)-3-methyl-1,3,4,9-tetrahydro-2H-pyrido[3,4-b]indol-2-yl)propan-1-ol]
IC50 [1]: 2700 nM | MCF7 Western % ER deg vs Fv [2]: 83% | CAMA1 Western % ER deg vs Fv [3]: 89% | IC50 [4]: 1 nM | solubility at 24 h [6]: 462 µM (≈ 242 µg/mL) | Human plasma protein binding (% free) [7]: 2.4 % free | logD [8]: 2.8 | IC50 [5]: 0.22 nM

C[C@@H]1Cc2c([nH]c3ccc(F)cc23)[C@@H](c2c(F)cnc(OCCNCCCF)c2F)N1CC(F)(F)CO [Example 65, 3-((1R,3R)-1-(3,5-difluoro-2-(2-((3-fluoropropyl)amino)ethoxy)pyridin-4-yl)-6-fluoro-3-methyl-1,3,4,9-tetrahydro-2H-pyrido[3,4-b]indol-2-yl)-2,2-difluoropropan-1-ol]
IC50 [1]: 9400 nM | MCF7 Western % ER deg vs Fv [2]: 94% | CAMA1 Western % ER deg vs Fv [3]: 97% | IC50 [4]: 0.64 nM | solubility at 24 h [6]: 462 µM (≈ 245 µg/mL) | Human plasma protein binding (% free) [7]: 1.9 % free | logD [8]: 3 | IC50 [5]: 0.058 nM
